The record followed here is publication PMC6395926, “Mass Balance and Drug Interaction Potential of Intravenous Eravacycline Administered to Healthy Subjects” (Antimicrobial Agents and Chemotherapy, 2019).

On the set-up of data set [1]: species or system human. The conditions noted are these: in vivo. The method, then:
(iii) Study assessments. Blood samples for PK analysis of eravacycline and its metabolites, TP-498, TP-6208, and TP-034, were collected predose and 1, 2, 4, 6, 8, 12, 24, 36, and 48 h after the start of the i.v. infusion on day 1 and day 10 (itraconazole) or day 1 and day 17 (rifampin). Safety assessments included AEs, clinical laboratory safety tests (hematology, serum chemistry, electrolytes, coagulation, urinalysis, and lipid profile), vital signs, physical examinations, and 12-lead ECG.

Data set [2] is described as follows: Mass balance study: safety/tolerability. It counts as in vivo, human. The method, then: Safety was assessed from adverse events (AEs), physical examinations, laboratory safety tests (hematology, coagulation, clinical chemistry, and urinalysis), vital signs, ECGs, and body weight.
A short description of data set [3]: Mass balance study: excretion of radioactivity in urine and feces after i.v. [14C]eravacycline. It counts as in vivo, human. The following applies: 60 mg [14C]eravacycline i.v. An excerpt:
(ii) Study design. This was a single-center, open-label study of a single i.v. dose of [^14C]eravacycline to assess the mass balance recovery and PK of eravacycline. The primary objectives were to determine mass balance recovery, determine routes and rates of excretion, provide metabolite profiling and structural identification, and assess the PK of radioactivity in plasma and whole blood. Subjects were screened for inclusion in the study, including a detailed medical history, physical examination, and laboratory evaluations, in the 28 days before dosing. […] After an overnight fast, each subject received 60 mg [^14C]eravacycline containing not more than 3.8 MBq (105 μCi) ^14C as a single i.v. infusion over 60 min.
(v) Excretion of radioactivity. Mass balance was determined from the incremental amount and cumulative amount excreted in urine, feces, and urine and feces combined. Amount excreted and amount excreted expressed as a percentage of administered dose were determined for urine, feces, and total samples.

Each structure is given as a SMILES string.

Consider `CN(C)[C@@H]1C(O)=C(C(N)=O)C(=O)[C@@]2(O)C(O)=C3C(=O)c4c(O)c(NC(=O)CN5CCCC5)cc(F)c4C[C@H]3C[C@@H]12` [eravacycline], for which the “subjects who experienced an AE” value in data set [1] (human, iv) is recorded as 25.0%. The “serious AEs or discontinuations for AEs related to study drug” value in data set [1] was “No serious AEs”. Moreover, the “serious or severe AEs” value in data set [2] is reported as “No serious or severe AEs”. In data set [2] (5 male subjects), the “number of subjects who experienced drug-related AEs” value is given as 3. Besides, the “subjects who experienced at least 1 adverse effect (AE)” value in data set [2] (5 male subjects, single i.v. dose) was found to be 80%. Besides, in data set [3], the “Renal excretion, share of the dose” value is on record as “approximately 34%” and the “total radioactivity recovered in the feces” value worked out at 47.8%. For the same compound, in data set [3] (288-h collection period), the “total radioactive dose recovered in the urine and feces” value is 82.8%. For the same compound, the “share of the dose recovered within the first 72 h” value in data set [3] (urine and feces) is on record as “Approximately half”.
